Experimental data from PubChem BioAssay (NCI).
“And” between values parts separate entries of the source, which are not always exact repeats. Identical values can stand only once.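 Grown in 96-well plates, cells were treated for 48 hours with each compound at five concentrations. Insufficient inhibition: endpoint recorded as highest concentration tested. At the GI50, growth is halved. TGI is the concentration that stops growth completely.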

Experiments:
Assay in all cases: NCI tumour cell line growth inhibition, 48 h
CAKI-1 renal = test system: CAKI-1 renal
DLD-1 colon = test system: DLD-1 colon
DMS 273 small cell lung = test system: DMS 273 small cell lung
HCC-2998 colon = test system: HCC-2998 colon
HL-60(TB) leukemia = test system: HL-60(TB) leukemia
LOX IMVI melanoma = test system: LOX IMVI melanoma
M19-MEL melanoma = test system: M19-MEL melanoma
MDA-N = test system: MDA-N
NCI-H226 lung = test system: NCI-H226 lung
NCI-H522 lung = test system: NCI-H522 lung
NCI/ADR-RES ovarian = test system: NCI/ADR-RES ovarian
OVCAR-8 ovarian = test system: OVCAR-8 ovarian
P388/ADR leukemia = test system: P388/ADR leukemia
SK-MEL-28 melanoma = test system: SK-MEL-28 melanoma
SK-MEL-5 melanoma = test system: SK-MEL-5 melanoma
SNB-75 CNS = test system: SNB-75 CNS
SR leukemia = test system: SR leukemia
SW-620 colon = test system: SW-620 colon
U251 CNS = test system: U251 CNS
UACC-257 melanoma = test system: UACC-257 melanoma
UO-31 renal = test system: UO-31 renal

## O=NN(CCCl)C(=O)NCCCl
CAKI-1 renal
  GI50: 44.9 µM and 186 µM
  TGI: 103 µM and 150 µM and > 278 µM
DLD-1 colon
  TGI: 176 µM
DMS 273 small cell lung
  TGI: 157 µM
HCC-2998 colon
  GI50: 63.5 µM and 260 µM
  TGI: 161 µM and 201 µM and > 370 µM
HL-60(TB) leukemia
  GI50: 30.5 µM and 11.3 µM
  TGI: 89.3 µM and 67.3 µM and 28.9 µM
LOX IMVI melanoma
  GI50: 29.5 µM and 170 µM
  TGI: 67.4 µM and 124 µM and 362 µM
M19-MEL melanoma
  TGI: 160 µM
MDA-N
  GI50: 210 µM
  TGI: 158 µM and > 301 µM
NCI-H226 lung
  GI50: 147 µM and 207 µM
  TGI: 250 µM and > 383 µM
NCI-H522 lung
  GI50: 47.7 µM and 102 µM
  TGI: 107 µM and 113 µM and 179 µM
NCI/ADR-RES ovarian
  GI50: 61.7 µM and 266 µM
  TGI: 156 µM and 234 µM and > 422 µM
OVCAR-8 ovarian
  GI50: 51.3 µM and > 320 µM
  TGI: 164 µM and 197 µM and > 437 µM
P388/ADR leukemia
  TGI: 48 µM
SK-MEL-28 melanoma
  TGI: 147 µM and 165 µM
SK-MEL-5 melanoma
  GI50: 95.6 µM and 362 µM
  TGI: 250 µM and 161 µM and > 500 µM
SNB-75 CNS
  GI50: 195 µM
  TGI: 127 µM and 128 µM and > 421 µM
SR leukemia
  GI50: 38.5 µM
  TGI: 122 µM and 97.7 µM
SW-620 colon
  GI50: 40.1 µM and 102 µM
  TGI: 102 µM and 130 µM and 229 µM
U251 CNS
  GI50: 31.3 µM and 146 µM
  TGI: 66.4 µM and 124 µM and > 306 µM
UACC-257 melanoma
  GI50: > 258 µM
  TGI: 238 µM and 159 µM and > 369 µM
UO-31 renal
  GI50: 75.9 µM
  TGI: 148 µM and 186 µM and 179 µM
